In patent publication US20230085307A1, “PYRIDAZINONE COMPOUND AND HERBICIDE” (NISSAN CHEMICAL CORPORATION, priority 2019, published 2023):

What was measured:
windgrass [1] = assay: Test Example 5: herbicidal effect by foliage application, plastic box (Table 20, symbol L); type: in vivo, windgrass (Apera spica-venti); conditions: 320 g/ha
Summary of the method: (§1)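 Sow seeds spot-wise in sterilized diluvial soil; cover with ~1.5 cm soil. Grow 14 days in greenhouse, 25° C. to 30° C. Spray foliage with emulsion diluted to predetermined amount. Rate effect after 3 weeks.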

blackgrass [2] = assay: Test Example 5: herbicidal effect by foliage application, plastic box (Table 20, symbol J); type: in vivo, blackgrass (Alopecurus myosuroides); conditions: 320 g/ha
Summary of the method: as §1

redroot pigweed [3] = assay: Test Example 5: herbicidal effect by foliage application, plastic box (Table 20, symbol N); type: in vivo, redroot pigweed (Amaranthus retroflexus); conditions: 320 g/ha
Summary of the method: as §1

persian speedwell = assay: Test Example 5: herbicidal effect by foliage application, plastic box (Table 20, symbol R); type: in vivo, Persian speedwell (Veronica persica); conditions: 320 g/ha
Summary of the method: as §1

chickweed [4] = assay: Test Example 4: herbicidal effect by soil treatment (Table 19, symbol P); type: in vivo, common chickweed (Stellaria media); conditions: amount of applied herbicide 320 g/ha
Excerpt: (§2) [Test Example 4] Herbicidal Effect Test by Soil Treatment
(§3) Sterilized diluvial soil was placed in a plastic box having a length of 21 cm, a width of 13 cm, and a depth of 7 cm. The seeds of each of southern crabgrass, green foxtail, barnyard grass, wild oat, blackgrass, Italian ryegrass, windgrass, velvetleaf, redroot pigweed, lambsquarters, chickweed, false cleavers, persian speedwell, corn, soybean, rice, wheat, beet, and rapeseed were sowed in a spot-like manner and covered with the soil having a thickness of about 1.5 cm. Subsequently, the emulsion agent of the compound of the present invention prepared according to Formulation Example 2 was diluted with water so as to achieve a predetermined herbicide amount, and the diluted emulsion agent was uniformly applied to the surface of the soil with a small-sized spray. The plastic box was placed in a greenhouse at 25° C. to 30° C. for growth of the plants. Three weeks after the herbicide application, the effect of the herbicide on each plant was evaluated according to the criteria of Test Example 1.

blackgrass [5] = assay: Test Example 4: herbicidal effect by soil treatment (Table 19, symbol J); type: in vivo, blackgrass (Alopecurus myosuroides); conditions: amount of applied herbicide 320 g/ha
Excerpt: as §2, §3

wild oat [6] = assay: Test Example 5: herbicidal effect by foliage application, plastic box (Table 20, symbol I); type: in vivo, wild oat (Avena fatua); conditions: 320 g/ha
Summary of the method: as §1

lambsquarters [7] = assay: Test Example 4: herbicidal effect by soil treatment (Table 19, symbol O); type: in vivo, lambsquarters (Chenopodium album); conditions: amount of applied herbicide 320 g/ha
Summary of the method: (§4)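 Applied as a water-diluted emulsion, the compound was sprayed onto soil covering newly sown seeds. Evaluation came three weeks after application, in a greenhouse held at 25° C. to 30° C.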

lambsquarters [8] = assay: Test Example 5: herbicidal effect by foliage application, plastic box (Table 20, symbol O); type: in vivo, lambsquarters (Chenopodium album); conditions: 320 g/ha
Summary of the method: as §1

Italian ryegrass [9] = assay: Test Example 4: herbicidal effect by soil treatment (Table 19, symbol K); type: in vivo, Italian ryegrass (Lolium multiflorum); conditions: amount of applied herbicide 320 g/ha
Summary of the method: as §4

windgrass [10] = assay: Test Example 4: herbicidal effect by soil treatment (Table 19, symbol L); type: in vivo, windgrass (Apera spica-venti); conditions: amount of applied herbicide 320 g/ha
Excerpt: as §2, §3

southern crabgrass [11] = assay: Test Example 5: herbicidal effect by foliage application, plastic box (Table 20, symbol F); type: in vivo, southern crabgrass (Digitaria ciliaris); conditions: 320 g/ha
Summary of the method: as §1

southern crabgrass [12] = assay: Test Example 4: herbicidal effect by soil treatment (Table 19, symbol F); type: in vivo, southern crabgrass (Digitaria ciliaris); conditions: amount of applied herbicide 320 g/ha
Summary of the method: as §4

green foxtail [13] = assay: Test Example 4: herbicidal effect by soil treatment (Table 19, symbol G); type: in vivo, green foxtail (Setaria viridis); conditions: amount of applied herbicide 320 g/ha
Summary of the method: as §4

velvetleaf [14] = assay: Test Example 5: herbicidal effect by foliage application, plastic box (Table 20, symbol M); type: in vivo, velvetleaf (Abutilon theophrasti); conditions: 320 g/ha
Summary of the method: as §1

barnyard grass [15] = assay: Test Example 3: herbicidal effect by foliage application, Wagner pot (Table 18, symbol H); type: in vivo, barnyard grass (Echinochloa crus-galli); conditions: 320 g/ha
Summary of the method: (§5)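 Plants were sown in alluvial soil held under 0.1–0.5 cm standing water and grown 14 days in a greenhouse at 25–30 °C. An emulsifiable formulation, water-diluted to the set dose, was then sprayed onto the foliage, and effects were scored three weeks later using previously defined criteria.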

Italian ryegrass [16] = assay: Test Example 5: herbicidal effect by foliage application, plastic box (Table 20, symbol K); type: in vivo, Italian ryegrass (Lolium multiflorum); conditions: 320 g/ha
Summary of the method: as §1

wild oat [17] = assay: Test Example 4: herbicidal effect by soil treatment (Table 19, symbol I); type: in vivo, wild oat (Avena fatua); conditions: amount of applied herbicide 320 g/ha
Summary of the method: as §4

barnyard grass [18] = assay: Test Example 5: herbicidal effect by foliage application, plastic box (Table 20, symbol H); type: in vivo, barnyard grass (Echinochloa crus-galli); conditions: 320 g/ha
Summary of the method: as §1

Chinese sprangletop = assay: Test Example 3: herbicidal effect by foliage application, Wagner pot (Table 18, symbol D); type: in vivo, chinese sprangletop (Leptochloa chinensis); conditions: 320 g/ha
Summary of the method: as §5

redroot pigweed [19] = assay: Test Example 4: herbicidal effect by soil treatment (Table 19, symbol N); type: in vivo, redroot pigweed (Amaranthus retroflexus); conditions: amount of applied herbicide 320 g/ha
Summary of the method: as §4

green foxtail [20] = assay: Test Example 5: herbicidal effect by foliage application, plastic box (Table 20, symbol G); type: in vivo, green foxtail (Setaria viridis); conditions: 320 g/ha
Summary of the method: as §1

barnyard grass [21] = assay: Test Example 4: herbicidal effect by soil treatment (Table 19, symbol H); type: in vivo, barnyard grass (Echinochloa crus-galli); conditions: amount of applied herbicide 320 g/ha
Summary of the method: as §4

chickweed [22] = assay: Test Example 5: herbicidal effect by foliage application, plastic box (Table 20, symbol P); type: in vivo, common chickweed (Stellaria media); conditions: 320 g/ha
Summary of the method: as §1

rice flat sedge = assay: Test Example 3: herbicidal effect by foliage application, Wagner pot (Table 18, symbol E); type: in vivo, rice flat sedge (Cyperus iria); conditions: 320 g/ha
Summary of the method: as §5

velvetleaf [23] = assay: Test Example 4: herbicidal effect by soil treatment (Table 19, symbol M); type: in vivo, velvetleaf (Abutilon theophrasti); conditions: amount of applied herbicide 320 g/ha
Summary of the method: as §4

[24] = foliage application, three weeks after application
[25] = foliage application after 14-day growth, evaluated three weeks after application

## COc1ccccc1-c1sc2cc(OCCS(C)(=O)=O)ccc2c1-c1c(O)c(C)nn(C)c1=O [3-127]
Windgrass [1]; [24]
  L: windgrass, herbicidal effect grade: 5 (Herbicidal rate of 90% or more (almost completely withered))
Blackgrass [2]; [24]
  J: blackgrass, herbicidal effect grade: 5 (Herbicidal rate of 90% or more (almost completely withered))
Redroot pigweed [3]; [24]
  N: redroot pigweed, herbicidal effect grade: 5 (Herbicidal rate of 90% or more (almost completely withered))
Persian speedwell; [24]
  R: persian speedwell, herbicidal effect grade: 5 (Herbicidal rate of 90% or more (almost completely withered))
Chickweed [4]
  P: chickweed, herbicidal effect grade: 1 (Herbicidal rate of 5% or more and less than 20%)
Blackgrass [5]
  J: blackgrass, herbicidal effect grade: 3 (Herbicidal rate of 40% or more and less than 70%)
Wild oat [6]; [24]
  I: wild oat, herbicidal effect grade: 4 (Herbicidal rate of 70% or more and less than 90%)
Lambsquarters [7]
  O: lambsquarters, herbicidal effect grade: 0 (Herbicidal rate of 5% or less (almost no effect))
Lambsquarters [8]; [24]
  O: lambsquarters, herbicidal effect grade: 4 (Herbicidal rate of 70% or more and less than 90%)
Italian ryegrass [9]
  K: Italian ryegrass, herbicidal effect grade: 4 (Herbicidal rate of 70% or more and less than 90%)
Windgrass [10]
  L: windgrass, herbicidal effect grade: 5 (Herbicidal rate of 90% or more (almost completely withered))
Southern crabgrass [11]; [24]
  F: southern crabgrass, herbicidal effect grade: 5 (Herbicidal rate of 90% or more (almost completely withered))
Southern crabgrass [12]
  F: southern crabgrass, herbicidal effect grade: 0 (Herbicidal rate of 5% or less (almost no effect))
Green foxtail [13]
  G: green foxtail, herbicidal effect grade: 0 (Herbicidal rate of 5% or less (almost no effect))
Velvetleaf [14]; [24]
  M: velvetleaf, herbicidal effect grade: 5 (Herbicidal rate of 90% or more (almost completely withered))
Barnyard grass [15]
  herbicidal effect on barnyard grass (H): 4 (Herbicidal rate of 70% or more and less than 90%)
Italian ryegrass [16]; [24]
  K: Italian ryegrass, herbicidal effect grade: 4 (Herbicidal rate of 70% or more and less than 90%)
Wild oat [17]
  I: wild oat, herbicidal effect grade: 0 (Herbicidal rate of 5% or less (almost no effect))
Barnyard grass [18]; [24]
  H: barnyard grass, herbicidal effect grade: 3 (Herbicidal rate of 40% or more and less than 70%)
Chinese sprangletop
  herbicidal effect on Chinese sprangletop (D): 3 (Herbicidal rate of 40% or more and less than 70%)
Redroot pigweed [19]
  N: redroot pigweed, herbicidal effect grade: 0 (Herbicidal rate of 5% or less (almost no effect))
Green foxtail [20]; [24]
  G: green foxtail, herbicidal effect grade: 5 (Herbicidal rate of 90% or more (almost completely withered))
Barnyard grass [21]
  H: barnyard grass, herbicidal effect grade: 0 (Herbicidal rate of 5% or less (almost no effect))
Chickweed [22]; [24]
  P: chickweed, herbicidal effect grade: 5 (Herbicidal rate of 90% or more (almost completely withered))
Rice flat sedge
  herbicidal effect on rice flat sedge (E): 5 (Herbicidal rate of 90% or more (almost completely withered))
Velvetleaf [23]
  M: velvetleaf, herbicidal effect grade: 0 (Herbicidal rate of 5% or less (almost no effect))

## CCOc1ccccc1-c1sc2c(Cl)cccc2c1-c1c(O)c(C)nn(C)c1=O [4-025]
Windgrass [1]; [25]
  herbicidal effect on L: windgrass (evaluation grade 0-5): 5 (Herbicidal rate of 90% or more (almost completely withered))
Blackgrass [2]; [25]
  herbicidal effect on J: blackgrass (evaluation grade 0-5): 4 (Herbicidal rate of 70% or more and less than 90%)
Redroot pigweed [3]; [25]
  herbicidal effect on N: redroot pigweed (evaluation grade 0-5): 4 (Herbicidal rate of 70% or more and less than 90%)
Persian speedwell; [25]
  herbicidal effect on R: persian speedwell (evaluation grade 0-5): 5 (Herbicidal rate of 90% or more (almost completely withered))
Chickweed [4]
  Herbicidal effect by soil treatment, P: chickweed: 0 (Herbicidal rate of 5% or less (almost no effect))
Blackgrass [5]
  Herbicidal effect by soil treatment, J: blackgrass: 1 (Herbicidal rate of 5% or more and less than 20%)
Wild oat [6]; [25]
  herbicidal effect on I: wild oat (evaluation grade 0-5): 0 (Herbicidal rate of 5% or less (almost no effect))
Lambsquarters [7]
  Herbicidal effect by soil treatment, O: lambsquarters: 1 (Herbicidal rate of 5% or more and less than 20%)
Lambsquarters [8]; [25]
  herbicidal effect on O: lambsquarters (evaluation grade 0-5): 3 (Herbicidal rate of 40% or more and less than 70%)
Italian ryegrass [9]
  Herbicidal effect by soil treatment, K: Italian ryegrass: 0 (Herbicidal rate of 5% or less (almost no effect))
Windgrass [10]
  Herbicidal effect by soil treatment, L: windgrass: 0 (Herbicidal rate of 5% or less (almost no effect))
Southern crabgrass [11]; [25]
  herbicidal effect on F: southern crabgrass (evaluation grade 0-5): 3 (Herbicidal rate of 40% or more and less than 70%)
Southern crabgrass [12]
  Herbicidal effect by soil treatment, F: southern crabgrass: 2 (Herbicidal rate of 20% or more and less than 40%)
Green foxtail [13]
  Herbicidal effect by soil treatment, G: green foxtail: 4 (Herbicidal rate of 70% or more and less than 90%)
Velvetleaf [14]; [25]
  herbicidal effect on M: velvetleaf (evaluation grade 0-5): 4 (Herbicidal rate of 70% or more and less than 90%)
Barnyard grass [15]
  herbicidal effect on barnyard grass (H): 5 (Herbicidal rate of 90% or more (almost completely withered))
Italian ryegrass [16]; [25]
  herbicidal effect on K: Italian ryegrass (evaluation grade 0-5): 3 (Herbicidal rate of 40% or more and less than 70%)
Wild oat [17]
  Herbicidal effect by soil treatment, I: wild oat: 0 (Herbicidal rate of 5% or less (almost no effect))
Barnyard grass [18]; [25]
  herbicidal effect on H: barnyard grass (evaluation grade 0-5): 5 (Herbicidal rate of 90% or more (almost completely withered))
Chinese sprangletop
  herbicidal effect on Chinese sprangletop (D): 3 (Herbicidal rate of 40% or more and less than 70%)
Redroot pigweed [19]
  Herbicidal effect by soil treatment, N: redroot pigweed: 3 (Herbicidal rate of 40% or more and less than 70%)
Green foxtail [20]; [25]
  herbicidal effect on G: green foxtail (evaluation grade 0-5): 5 (Herbicidal rate of 90% or more (almost completely withered))
Barnyard grass [21]
  Herbicidal effect by soil treatment, H: barnyard grass: 3 (Herbicidal rate of 40% or more and less than 70%)
Chickweed [22]; [25]
  herbicidal effect on P: chickweed (evaluation grade 0-5): 4 (Herbicidal rate of 70% or more and less than 90%)
Rice flat sedge
  herbicidal effect on rice flat sedge (E): 5 (Herbicidal rate of 90% or more (almost completely withered))
Velvetleaf [23]
  Herbicidal effect by soil treatment, M: velvetleaf: 2 (Herbicidal rate of 20% or more and less than 40%)
